Structures are written as SMILES.

As usually defined, the IC50 is the concentration needed to halve the response being measured. A high value points to weaker potency.

For the test, the target named is HDM2 protein (Homo sapiens, UniProt Q00987). As to the kind of experiment: fluorescence polarization screening assay (FP IC50). Format: binding. To be noted: class symbols. Here is the method: The compounds were evaluated to determine activity at the HDM2 protein by known methods such as the fluorescence polarization screening assay that measures the inhibitory concentration that achieves 50% of maximal activity (FP IC50) and the dissociation constant for inhibitor binding (FP Ki). [Zhang et al., J. Analytical Biochemistry 331: 138-146 (2004)].
HDM2 protein, sequence (Q00987 whole entry): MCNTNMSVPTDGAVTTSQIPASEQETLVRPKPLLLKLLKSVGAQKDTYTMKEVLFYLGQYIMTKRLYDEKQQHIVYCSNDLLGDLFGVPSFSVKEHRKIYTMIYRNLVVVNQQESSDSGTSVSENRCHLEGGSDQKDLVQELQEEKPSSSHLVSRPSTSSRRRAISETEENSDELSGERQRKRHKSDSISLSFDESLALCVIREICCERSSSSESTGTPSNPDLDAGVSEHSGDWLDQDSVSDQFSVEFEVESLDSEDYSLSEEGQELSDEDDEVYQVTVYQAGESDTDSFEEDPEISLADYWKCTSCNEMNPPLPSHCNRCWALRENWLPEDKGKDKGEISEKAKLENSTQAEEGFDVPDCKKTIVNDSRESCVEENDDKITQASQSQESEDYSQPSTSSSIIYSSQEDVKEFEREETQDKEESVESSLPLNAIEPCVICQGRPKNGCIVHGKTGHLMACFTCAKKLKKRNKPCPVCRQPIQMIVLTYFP
For orientation: In fluorescence polarisation assays a small probe gives low polarisation when free and higher when bound to something large.
`CCC[C@H]1N(C(=O)c2ncccc2C(F)(F)F)CCC[C@@]1(Oc1csc(C(F)(F)F)c1)C(=O)N1Cc2ccc(F)cc2C[C@@H]1C(=O)NCCO` [Compound A150, (3R)-6-fluoro-N-(2-hydroxyethyl)-2-{[(2R,3S)-2-propyl-1-{[3-(trifluoromethyl)pyridin-2-yl]carbonyl}-3-{[5-(trifluoromethyl)thiophen-3-yl]oxy}piperidin-3-yl]carbonyl}-1,2,3,4-tetrahydroisoquinoline-3-carboxamide] gave an IC50 of 0.001 to 0.1 µM.

In turn, `CCC[C@H]1N(C(=O)c2ncccc2C(F)(F)F)CCC[C@@]1(Oc1csc(C(F)(F)F)c1)C(=O)N1Cc2ccc(Cl)cc2C[C@@H]1CN(C)C(=O)[C@@H](C)OC` [Compound A151, (2R)-N-{[(3R)-6-chloro-2-{[(2R,3S)-2-propyl-1-{[3-(trifluoromethyl)pyridin-2-yl]carbonyl}-3-{[5-(trifluoromethyl)thiophen-3-yl]oxy}piperidin-3-yl]carbonyl}-1,2,3,4-tetrahydroisoquinolin-3-yl]methyl}-2-methoxy-N-methylpropanamide] had an IC50 of 0.001 to 0.1 µM.

Regarding `CCC[C@H]1N(C(=O)c2ncccc2C(F)(F)F)CCC[C@@]1(Oc1csc(C(F)(F)F)c1)C(=O)N1Cc2ccc(Cl)cc2C[C@@H]1CN(C)C(=O)CC` [Compound A152, N-{[(3R)-6-chloro-2-{[(2R,3S)-2-propyl-1-{[3-(trifluoromethyl)pyridin-2-yl]carbonyl}-3-{[5-(trifluoromethyl)thiophen-3-yl]oxy}piperidin-3-yl]carbonyl}-1,2,3,4-tetrahydroisoquinolin-3-yl]methyl}-N-methylpropanamide], the IC50 is 0.001 to 0.1 µM.

`CCC[C@H]1N(C(=O)c2ncccc2C(F)(F)F)CCC[C@@]1(Oc1csc(C(F)(F)F)c1)C(=O)N1Cc2ccc(F)cc2C[C@H]1C[C@H](C(=O)O)C(C)C` [Compound A153, (2S)-2-{[(3R)-6-fluoro-2-{[(2R,3S)-2-propyl-1-{[3-(trifluoromethyl)pyridin-2-yl]carbonyl}-3-{[5-(trifluoromethyl)thiophen-3-yl]oxy}piperidin-3-yl]carbonyl}-1,2,3,4-tetrahydroisoquinolin-3-yl]methyl}-3-methylbutanoic acid] came in with an IC50 of 0.001 to 0.1 µM.

For `CCC[C@H]1N(C(=O)c2ncccc2C(F)(F)F)CCC[C@@]1(Oc1csc(C(F)(F)F)c1)C(=O)N1Cc2ccccc2C(C(=O)O)C1` (stereo partly drawn) [Compound A154, 2-{[(2R,3S)-2-propyl-1-{[3-(trifluoromethyl)pyridin-2-yl]carbonyl}-3-{[5-(trifluoromethyl)thiophen-3-yl]oxy}piperidin-3-yl]carbonyl}-1,2,3,4-tetrahydroisoquinoline-4-carboxylic acid], the IC50 lay within 0.101 to 20 µM.

As for `CCC[C@H]1N(C(=O)c2ncccc2C(F)(F)F)CCC[C@@]1(Oc1csc(C(F)(F)F)c1)C(=O)N1Cc2ccc(Cl)cc2C[C@@H]1CCCN1CCOCC1` [Compound A155, (3S)-6-chloro-3-(3-morpholin-4-ylpropyl)-2-{[(2R,3S)-2-propyl-1-{[3-(trifluoromethyl)pyridin-2-yl]carbonyl}-3-{[5-(trifluoromethyl)thiophen-3-yl]oxy}piperidin-3-yl]carbonyl}-1,2,3,4-tetrahydroisoquinoline], the half-inhibitory concentration (IC50) is 0.001 to 0.1 µM.

For `CCC[C@H]1N(C(=O)c2ncccc2C(F)(F)F)CCC[C@@]1(Oc1csc(C(F)(F)F)c1)C(=O)N1Cc2ccc(Cl)cc2C[C@@H]1CCCN1CCC[C@H]1COC` [Compound A156, (3S)-6-chloro-3-{3-[(2S)-2-(methoxymethyl)pyrrolidin-1-yl]propyl}-2-{[(2R,3S)-2-propyl-1-{[3-(trifluoromethyl)pyridin-2-yl]carbonyl}-3-{[5-(trifluoromethyl)thiophen-3-yl]oxy}piperidin-3-yl]carbonyl}-1,2,3,4-tetrahydroisoquinoline], the IC50 was in the range of 0.001 to 0.1 µM.

`CCC[C@H]1N(C(=O)c2ncccc2C(F)(F)F)CCC[C@@]1(Oc1csc(C(F)(F)F)c1)C(=O)N1Cc2cc(F)c(F)cc2C[C@H]1CCC(=O)O` [Compound A157, 3-[(3R)-6,7-difluoro-2-{[(2R,3S)-2-propyl-1-{[3-(trifluoromethyl)pyridin-2-yl]carbonyl}-3-{[5-(trifluoromethyl)thiophen-3-yl]oxy}piperidin-3-yl]carbonyl}-1,2,3,4-tetrahydroisoquinolin-3-yl]propanoic acid] showed an IC50 of 0.001 to 0.1 µM.

As for `CCC[C@H]1N(C(=O)c2ncccc2C(F)(F)F)CCC[C@@]1(Oc1csc(C(F)(F)F)c1)C(=O)N1Cc2ccc(F)cc2C[C@H]1CN(C)C(=O)[C@@H](C)O` [Compound A158, (2R)-N-{[(3S)-6-fluoro-2-{[(2R,3S)-2-propyl-1-{[3-(trifluoromethyl)pyridin-2-yl]carbonyl}-3-{[5-(trifluoromethyl)thiophen-3-yl]oxy}piperidin-3-yl]carbonyl}-1,2,3,4-tetrahydroisoquinolin-3-yl]methyl}-2-hydroxy-N-methylpropanamide], the IC50 lay in the range of 0.101 to 20 µM.

In turn, `CCC[C@H]1N(C(=O)c2ncccc2C(F)(F)F)CCC[C@@]1(Oc1csc(C(F)(F)F)c1)C(=O)N1Cc2ccc(F)cc2C[C@H]1CN(C)C(=O)C(F)F` [Compound A159, 2,2-difluoro-N-{[(3S)-6-fluoro-2-{[(2R,3S)-2-propyl-1-{[3-(trifluoromethyl)pyridin-2-yl]carbonyl}-3-{[5-(trifluoromethyl)thiophen-3-yl]oxy}piperidin-3-yl]carbonyl}-1,2,3,4-tetrahydroisoquinolin-3-yl]methyl}-N-methylacetamide] yielded a half-maximal inhibitory concentration (IC50) of 0.101 to 20 µM.

Molecule `CCC[C@H]1N(C(=O)c2ncccc2C(F)(F)F)CCC[C@@]1(Oc1csc(C(F)(F)F)c1)C(=O)N1Cc2ccc(F)cc2C[C@H]1C(=O)N1CCN(C)CC1` [Compound A160, (3S)-6-fluoro-3-[(4-methylpiperazin-1-yl)carbonyl]-2-{[(2R,3S)-2-propyl-1-{[3-(trifluoromethyl)pyridin-2-yl]carbonyl}-3-{[5-(trifluoromethyl)thiophen-3-yl]oxy}piperidin-3-yl]carbonyl}-1,2,3,4-tetrahydroisoquinoline] displayed an IC50 of 0.101 to 20 µM.

Molecule `CCC[C@H]1N(C(=O)c2ncccc2C(F)(F)F)CCC[C@@]1(Oc1csc(C(F)(F)F)c1)C(=O)N1Cc2ccc(Cl)cc2C[C@@H]1C[C@H](COC)C(=O)O` [Compound A161, (2R)-3-[(3S)-6-chloro-2-{[(2R,3S)-2-propyl-1-{[3-(trifluoromethyl)pyridin-2-yl]carbonyl}-3-{[5-(trifluoromethyl)thiophen-3-yl]oxy}piperidin-3-yl]carbonyl}-1,2,3,4-tetrahydroisoquinolin-3-yl]-2-(methoxymethyl) propanoic acid] came in with an IC50 of 0.001 to 0.1 µM.

The molecule `CCC[C@H]1N(C(=O)c2ncccc2C(F)(F)F)CCC[C@@]1(Oc1csc(C(F)(F)F)c1)C(=O)N1Cc2ccc(F)cc2C[C@H]1CN1CCC(O)CC1` [Compound A162, 1-{[(3S)-6-fluoro-2-{[(2R,3S)-2-propyl-1-{[3-(trifluoromethyl)pyridin-2-yl]carbonyl}-3-{[5-(trifluoromethyl)thiophen-3-yl]oxy}piperidin-3-yl]carbonyl}-1,2,3,4-tetrahydroisoquinolin-3-yl]methyl}piperidin-4-ol] returned an IC50 of 0.101 to 20 µM.

With `CCC[C@H]1N(C(=O)c2ncccc2C(F)(F)F)CCC[C@@]1(Oc1csc(C(F)(F)F)c1)C(=O)N1Cc2ccc(F)cc2C[C@@H]1CCN(C)C(=O)[C@@H](C)O` [Compound A163, (2R)-N-{2-[(3R)-6-fluoro-2-{[(2R,3S)-2-propyl-1-{[3-(trifluoromethyl)pyridin-2-yl]carbonyl}-3-{[5-(trifluoromethyl)thiophen-3-yl]oxy}piperidin-3-yl]carbonyl}-1,2,3,4-tetrahydroisoquinolin-3-yl]ethyl}-2-hydroxy-N-methylpropanamide], the IC50 is 0.001 to 0.1 µM.

Regarding `CCC[C@H]1N(C(=O)c2ncccc2C(F)(F)F)CCC[C@@]1(Oc1csc(C(F)(F)F)c1)C(=O)N1Cc2ccc(Cl)cc2C[C@@H]1C[C@H](O)C(=O)O` [Compound A164, (2S)-3-[(3R)-6-chloro-2-{[(2R,3S)-2-propyl-1-{[3-(trifluoromethyl)pyridin-2-yl]carbonyl}-3-{[5-(trifluoromethyl)thiophen-3-yl]oxy}piperidin-3-yl]carbonyl}-1,2,3,4-tetrahydroisoquinolin-3-yl]-2-hydroxypropanoic acid], the IC50 lay in the range of 0.001 to 0.1 µM.

The molecule `CCC[C@H]1N(C(=O)c2ncccc2C(F)(F)F)CCC[C@@]1(Oc1csc(C(F)(F)F)c1)C(=O)N1Cc2ccc(Cl)cc2C[C@@H]1C[C@H](CC)C(=O)O` [Compound A165, (2S)-2-{[(3S)-6-chloro-2-{[(2R,3S)-2-propyl-1-{[3-(trifluoromethyl)pyridin-2-yl]carbonyl}-3-{[5-(trifluoromethyl)thiophen-3-yl]oxy}piperidin-3-yl]carbonyl}-1,2,3,4-tetrahydroisoquinolin-3-yl]methyl}butanoic acid] returned an IC50 of 0.001 to 0.1 µM.

`CCC[C@H]1N(C(=O)c2ncccc2C(F)(F)F)CCC[C@@]1(Oc1csc(C(F)(F)F)c1)C(=O)N1Cc2ccc(Cl)cc2C[C@@H]1C(=O)NC1CCOCC1` [Compound A166, (3R)-6-chloro-2-{[(2R,3S)-2-propyl-1-{[3-(trifluoromethyl)pyridin-2-yl]carbonyl}-3-{[5-(trifluoromethyl)thiophen-3-yl]oxy}piperidin-3-yl]carbonyl}-N-(tetrahydro-2H-pyran-4-yl)-1,2,3,4-tetrahydroisoquinoline-3-carboxamide] had an IC50 of 0.001 to 0.1 µM.

Take `CCC[C@H]1N(C(=O)c2ncccc2C(F)(F)F)CCC[C@@]1(Oc1csc(C(F)(F)F)c1)C(=O)N1Cc2ccc(F)cc2C[C@H]1CCC(C)O` (stereo partly drawn) [Compound A167, 4-[(3R)-6-fluoro-2-{[(2R,3S)-2-propyl-1-{[3-(trifluoromethyl)pyridin-2-yl]carbonyl}-3-{[5-(trifluoromethyl)thiophen-3-yl]oxy}piperidin-3-yl]carbonyl}-1,2,3,4-tetrahydroisoquinolin-3-yl]butan-2-ol]: the 50% inhibitory concentration (IC50) is 0.001 to 0.1 µM.

Values taken from US9062071B2, “Substituted piperidines as HDM2 inhibitors” (Merck Sharp & Dohme Corp, priority 2011, dated 2015).
